In publication PMC9994261 (Cell, 2023):
Values after ≈ are worked out from the molar mass of the structure shown. Where two headings read alike, the source gives them in different places.

Key:
Mtb H37Rv [1] = experiment: Combination study in mouse model of TB; format: in vivo; settings: 4 weeks
Mtb H37Rv [2] = experiment: microbe, parasite or virus in culture; format: cell-based, Mycobacterium tuberculosis
Mtb H37Rv [3] = experiment: Mouse model of highly acute TB; format: in vivo
CYP3A4 = molecular target: T1, CYP3A4 (Homo sapiens, UniProt P08684); experiment: CYP3A4 reversible inhibition in human liver microsomes; format: in vitro ADME
T1 construct: human liver microsomes (purchased from BD Gentest as a pooled batch from 150 donors); tissue BD Gentest Cat#452117; host or cells: pooled human liver microsomes (150 donors)
T1 sequence (P08684 whole entry): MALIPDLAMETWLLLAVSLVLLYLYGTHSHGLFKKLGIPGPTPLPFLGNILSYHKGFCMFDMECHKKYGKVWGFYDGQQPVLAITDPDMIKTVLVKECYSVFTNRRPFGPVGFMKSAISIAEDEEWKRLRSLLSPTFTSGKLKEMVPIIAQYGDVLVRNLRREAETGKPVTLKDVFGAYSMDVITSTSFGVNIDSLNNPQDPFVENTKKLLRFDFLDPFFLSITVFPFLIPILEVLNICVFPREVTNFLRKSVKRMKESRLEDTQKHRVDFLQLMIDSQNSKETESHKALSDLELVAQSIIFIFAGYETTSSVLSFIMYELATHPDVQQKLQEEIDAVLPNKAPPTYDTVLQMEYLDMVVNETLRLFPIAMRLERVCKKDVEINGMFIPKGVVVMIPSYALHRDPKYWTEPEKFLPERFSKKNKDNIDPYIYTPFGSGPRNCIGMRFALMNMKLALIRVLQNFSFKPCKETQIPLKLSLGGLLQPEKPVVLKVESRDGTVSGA
Description: Incubations were performed with 0.1 mg/mL human liver microsomes (purchased from BD Gentest as a pooled batch from 150 donors) in a final incubation volume of 0.25 mL. The incubation medium contained 0.05 M phosphate buffer (pH 7.4) containing an NADPH regenerating system (including 1.3 mM NADP, 3.3 mM glucose 6-phosphate,3.3 mM MgCl2, and 1.0 U/mL glucose 6-phosphate dehydrogenase). Probe CYP3A4 substrates (midazolam at 3 μM and testosterone at 50 μM), were incubated for 10 and 30 min, respectively, with increasing concentrations of GM, MGM or CGM (concentration range: 1 - 30 μM). The reaction was stopped by adding acetonitrile to precipitate the proteins. The incubation mixtures were then centrifuged for 5 min at 10,000 × g, and an aliquot of the supernatant was analyzed using high-performance liquid chromatography coupled to mass spectrometry for the assessment of 1’-hydroxymidazolam and 6β-hydroxytestosterone metabolite formation.

Mtb methylated ribosome = experiment: Mtb in vitro translation assay with methylated (erythromycin-treated) ribosome; format: biochemical, Mycobacterium tuberculosis; settings: read-out: Translation inhibition of Mtb methylated ribosome (IC50 μM)

Q: What does the source list for `CON=C1CC(C)OC(OC2C(C)CC(C)(OC(=O)NC(C)(C)CNS(=O)(=O)c3ccccc3)C(=O)C(C)C(OC(=O)CC(C)C)C(C)C(C(C)COC3OC(C)C(O)C(OC)C3OC)OC(=O)C(C)C(OC3CC(C)N(C)CC(C)O3)C2C)C1O` (stereo not shown) [SEQ-9]?
A: Additional reduction of lung CFU compared with B or Pa alone (Mtb H37Rv [1]; SEQ-9 300 mg/kg added to B or Pa): approximately 1 log10 CFU; Additional reduction of lung CFU compared with L or Z alone (Mtb H37Rv [1]; SEQ-9 300 mg/kg added to L or Z): approximately 0.5 log units; MIC (Mtb H37Rv [2]; Mycobacterium tuberculosis, ERDMAN / H37Rv, H37Rv/Erdman, read-out: MIC (μM) for Mtb in liquid culture): 0.7 µM (≈ 0.87 µg/mL); MIC (Mtb H37Rv [2]; Mycobacterium tuberculosis, H37RV, read-out: MIC for Mtb in liquid culture): 0.7 µM (≈ 0.87 µg/mL); MIC (Mtb H37Rv [2]; read-out: MIC for Mtb in liquid culture): 0.70 µM (≈ 0.87 µg/mL); Decrease in CFU (Mtb H37Rv [3]; 100 mg/kg, lipid-based formulation): 2 log10; Reduction of mean lung CFU (Mtb H37Rv [3]; 300 mg/kg, after 2 weeks of treatment): 1.42 log10; Minimum effective dose (MED) (Mtb H37Rv [3]; lipid-based formulation): 100 mg/kg; pKa (physchem): 8.3; Cytochrome 3A4 inhibition (in words) (CYP3A4): abolished; IC50 at 10 min (CYP3A4; human, microsomes, pH 7.4, midazolam, read-out: CYP3A4 inhibition, IC50 with midazolam as substrate): > 30 µM; IC50 at 30 min (CYP3A4; human, microsomes, pH 7.4, testosterone, read-out: CYP3A4 inhibition, IC50 with testosterone as substrate (T)): > 50 µM; IC50 (Mtb methylated ribosome): 0.064 µM
